Earlier results in paper PMC9516332 (Frontiers in Oncology, 2022).
Read-outs that look alike come from different tables or passages of the source.

Legend:
[1] = biological target: T1, panel of 255 wild-type kinases (Homo sapiens, UniProt O15530); details: kinase PDK1, 1 µmol/L single concentration, cited from earlier work
T1 sequence (O15530 1-556): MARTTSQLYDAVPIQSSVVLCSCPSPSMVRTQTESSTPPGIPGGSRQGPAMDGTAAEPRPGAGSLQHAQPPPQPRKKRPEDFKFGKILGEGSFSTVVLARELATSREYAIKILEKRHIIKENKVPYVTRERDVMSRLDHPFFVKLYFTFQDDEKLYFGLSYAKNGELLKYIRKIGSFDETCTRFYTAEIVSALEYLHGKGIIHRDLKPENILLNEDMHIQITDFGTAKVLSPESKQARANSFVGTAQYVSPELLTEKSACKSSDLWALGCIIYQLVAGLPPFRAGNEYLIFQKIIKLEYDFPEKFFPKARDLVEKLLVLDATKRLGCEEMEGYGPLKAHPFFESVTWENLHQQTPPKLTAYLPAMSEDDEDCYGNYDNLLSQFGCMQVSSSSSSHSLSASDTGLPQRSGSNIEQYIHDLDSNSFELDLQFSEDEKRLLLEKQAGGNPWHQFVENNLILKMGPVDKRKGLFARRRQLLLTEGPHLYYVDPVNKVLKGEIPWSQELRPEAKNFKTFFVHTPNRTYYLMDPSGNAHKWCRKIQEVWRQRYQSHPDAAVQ

[2] = biological target: panel of 255 wild-type kinases (Homo sapiens, UniProt P06239); details: kinase LCK, 1 µmol/L single concentration, cited from earlier work
[3] = biological target: panel of 255 wild-type kinases (Homo sapiens, UniProt P29376); details: kinase LTK, 1 µmol/L single concentration, cited from earlier work
[4] = biological target: panel of 255 wild-type kinases (Homo sapiens, UniProt P45984); details: kinase JNK2, 1 µmol/L single concentration, cited from earlier work
[5] = biological target: panel of 255 wild-type kinases (Homo sapiens, UniProt P53355); details: kinase DAPK1, 1 µmol/L single concentration, cited from earlier work
[6] = biological target: panel of 255 wild-type kinases (Homo sapiens, UniProt P78362); details: kinase SRPK2, 1 µmol/L single concentration, cited from earlier work
[7] = biological target: panel of 255 wild-type kinases (Homo sapiens, UniProt Q05397); details: kinase FAK, 1 µmol/L single concentration, cited from earlier work
[8] = biological target: panel of 255 wild-type kinases (Homo sapiens, UniProt Q05655); details: cited from earlier work
[9] = biological target: panel of 255 wild-type kinases (Homo sapiens, UniProt Q86Z02); details: kinase HIPK1, 1 µmol/L single concentration, cited from earlier work
[10] = biological target: T2, panel of 255 wild-type kinases (Homo sapiens, UniProt Q9H093); details: NuaK2, 1 µmol/L single concentration, cited from earlier work
T2 sequence (Q9H093 1-628): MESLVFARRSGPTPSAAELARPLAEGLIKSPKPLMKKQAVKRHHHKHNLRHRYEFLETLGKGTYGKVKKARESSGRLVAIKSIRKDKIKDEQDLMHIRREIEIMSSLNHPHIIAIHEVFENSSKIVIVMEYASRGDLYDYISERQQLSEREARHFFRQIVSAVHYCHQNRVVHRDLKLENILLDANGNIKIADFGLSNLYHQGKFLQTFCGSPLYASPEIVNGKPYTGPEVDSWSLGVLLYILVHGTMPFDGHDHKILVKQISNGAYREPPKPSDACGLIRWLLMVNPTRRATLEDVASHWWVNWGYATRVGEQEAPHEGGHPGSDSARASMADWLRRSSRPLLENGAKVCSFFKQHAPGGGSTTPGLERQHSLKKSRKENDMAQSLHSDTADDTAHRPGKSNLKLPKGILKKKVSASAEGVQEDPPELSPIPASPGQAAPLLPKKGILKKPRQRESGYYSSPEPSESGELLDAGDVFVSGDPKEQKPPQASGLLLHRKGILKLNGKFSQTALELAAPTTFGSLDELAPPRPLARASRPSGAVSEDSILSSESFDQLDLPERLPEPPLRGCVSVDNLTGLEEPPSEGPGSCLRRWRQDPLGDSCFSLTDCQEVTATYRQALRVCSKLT

[11] = biological target: panel of 255 wild-type kinases (Homo sapiens, UniProt Q9H4A3); details: kinase WNK1, 1 µmol/L single concentration, cited from earlier work
[12] = ref DOI: 10.1371/journal.pone.0092146
[13] = kinase PKCδ, 1 µmol/L single concentration, ref DOI: 10.1371/journal.pone.0092146
[14] = ref DOI: 10.1158/1535-7163.MCT-18-0877
[15] = kinase PKCδ, 1 µmol/L single concentration, ref DOI: 10.1158/1535-7163.MCT-18-0877

SMILES | %-inhibition at 1 µmol/L, PDK1 [1, 12] | %-inhibition at 1 µmol/L, LCK [2, 12] | %-inhibition at 1 µmol/L, LTK [3, 12] | %-inhibition at 1 µmol/L, JNK2 [4, 12] | %-inhibition at 1 µmol/L, DAPK1 [5, 12] | %-inhibition at 1 µmol/L, SRPK2 [6, 12] | %-inhibition at 1 µmol/L, FAK [7, 12] | %-inhibition at 1 µmol/L, PKCδ [8, 13] | %-inhibition at 1 µmol/L, HIPK1 [9, 12] | %-inhibition, NuaK2 [10, 12] | %-inhibition at 1 µmol/L, WNK1 [11, 12] | %-inhibition at 1 µmol/L, PDK1 [1, 14] | %-inhibition at 1 µmol/L, LCK [2, 14] | %-inhibition at 1 µmol/L, LTK [3, 14] | %-inhibition at 1 µmol/L, JNK2 [4, 14] | %-inhibition at 1 µmol/L, DAPK1 [5, 14] | %-inhibition at 1 µmol/L, SRPK2 [6, 14] | %-inhibition at 1 µmol/L, FAK [7, 14] | %-inhibition at 1 µmol/L, HIPK1 [9, 14] | %-inhibition, NuaK2 [10, 14] | further results
C[C@@H](Oc1cc(-c2cnn(C3CCNCC3)c2)cnc1N)c1c(Cl)ccc(F)c1Cl [crizotinib] | -5% | 98% | 102% | -2.59% | -4% | -2.33% | 90% | -1.14% | -7% | 87% | -3% |  |  |  |  |  |  |  |  |  | 
CC(C)(C)c1nc(-c2cccc(NS(=O)(=O)c3c(F)cccc3F)c2F)c(-c2ccnc(N)n2)s1 [dabrafenib] | -5.38% | 83% | 2.67% | -0.947% | -0.54% | 11% | 13% | -6% | 70% | 4.53% | 1.14% |  |  |  |  |  |  |  |  |  | 
C=CC(=O)N1CCC[C@@H](n2nc(-c3ccc(Oc4ccccc4)cc3)c3c(N)ncnc32)C1 [ibrutinib] |  |  |  |  |  |  |  |  |  |  |  | -2% | 100% | 2.76% | -2.83% | -3.8% | 3% | 5% | 4.26% | 6.37% | %-inhibition at 1 µmol/L, PKCδ [8, 15]: 0.525%; %-inhibition at 1 µmol/L, WNK1 [11, 14]: 2.3%
CO[C@@H]1[C@H](N(C)C(=O)c2ccccc2)C[C@H]2O[C@]1(C)n1c3ccccc3c3c4c(c5c6ccccc6n2c5c31)C(=O)NC4 [midostaurin] |  |  |  |  |  |  |  |  |  |  |  | 98% | 91% | 90% | 8% | 57% | 25% | 28% | 12% | 99% | %-inhibition at 1 µmol/L, PKCδ [8]: 93%; %-inhibition at 1 µmol/L, WNK1 [11, 14]: 5.36%
C=CC(=O)Nc1cc(Nc2nccc(-c3cn(C)c4ccccc34)n2)c(OC)cc1N(C)CCN(C)C [osimertinib] |  |  |  |  |  |  |  |  |  |  |  | 0.0271% | 3.62% | 97% | -2.75% | 29% | 3.77% | 81% | 34% | 4% | %-inhibition at 1 µmol/L, PKCδ [8, 15]: 16%; %-inhibition at 1 µmol/L, WNK1 [11, 14]: -1.88%
CC(=O)Nc1cccc(-n2c(=O)n(C3CC3)c(=O)c3c(Nc4ccc(I)cc4F)n(C)c(=O)c(C)c32)c1 [trametinib] | -5.52% | -7% | -7% | -4.73% | -6% | -0.868% | -2.41% | -4.75% | -3.71% | 9% | -1.42% |  |  |  |  |  |  |  |  |  | 
CCCS(=O)(=O)Nc1ccc(F)c(C(=O)c2c[nH]c3ncc(-c4ccc(Cl)cc4)cc23)c1F [vemurafenib] | -4% | 81% | 2.6% | -0.0632% | -0.115% | -2.2% | -3.55% | -5% | -4.72% | 4.36% | 10% |  |  |  |  |  |  |  |  |  | 
